Assay: Toxicity in mouse (plasma creatinine, BUN, kidney histology)
Type: in vivo, ddY mice
Conditions: compound 1a 1 mg/kg intravenous once per day for 5 days
Experimental: Six days after the first intravenous injection, under isoflurane anesthesia, the blood was collected from the vena cava to sacrifice the mice. Plasma creatinine and urea nitrogen (BUN) levels were respectively measured using a creatinine measurement kit (LabAssay, Wako) and a BUN measurement kit (DIUR-100, BioAssay System). Thereafter, kidneys were excised, fixed with 4% paraformaldehyde, and embedded in paraffin blocks. Then, 5-μm-thick sections were prepared. The kidney sections were stained with hematoxylin and eosin, and renal injury was evaluated using a light microscopy (Biozero, KEYENCE). In addition, when HgCl2 was administered as a positive control, plasma creatinine, BUN level and kidney sections were also evaluated by the above-mentioned methods.

[Cl][Hg][Cl] [HgCl2]
histological sections of renal tissues (hematoxylin and eosin) (HgCl2 positive control, FIG. 10C): infiltration and necrosis of inflammatory cells and damaged cells were observed | plasma concentration of creatinine (HgCl2 subcutaneous positive control, FIG. 10A): significantly increased | plasma concentration of BUN (HgCl2 subcutaneous positive control, FIG. 10B): significantly increased
